From the NIST ThermoML archive (doi:10.1016/j.jct.2012.11.011)

Assay: xn = mol fraction of the nth substance listed
Details: Liquid, Vibrating tube method

CCOC(=O)OCC [diethyl carbonate] + CCCCCCCC
mass density [kg/m3]
Details | x1 = 0.0522 | x1 = 0.1042 | x1 = 0.1671 | x1 = 0.322 | x1 = 0.3657 | x1 = 0.5075 | x1 = 0.6922 | x1 = 0.8002 | x1 = 0.9206 | x1 = 0.9459
288.15 K, 100 kPa | 716 | 726.1 | 738.6 | 772.6 | 784 | 820.5 | 874.2 | 908.5 | 951 | 959.8
288.15 K, 5000 kPa | 720.1 | 730.4 | 742.8 | 778.1 | 788.4 | 824.9 | 879.4 | 912.8 | 954.9 | 964.3
288.15 K, 10000 kPa | 723.9 | 734.4 | 746.8 | 782.1 | 792.6 | 829 | 883.7 | 917 | 958.8 | 968.6
288.15 K, 20000 kPa | 731.2 | 741.6 | 754.1 | 789.6 | 800.1 | 836.8 | 891.6 | 925 | 966.5 | 976.3
288.15 K, 30000 kPa | 737.8 | 748.2 | 760.7 | 796.5 | 807.1 | 843.9 | 898.5 | 932.1 | 973.8 | 983.3
288.15 K, 40000 kPa | 744 | 754.5 | 767.2 | 803.1 | 813.7 | 850.5 | 907.6 | 939 | 980.7 | 990.3
298.15 K, 100 kPa | 707.7 | 717.7 | 729.9 | 764.5 | 774.7 | 810.7 | 864.7 | 897.7 | 939.2 | 949.3
298.15 K, 5000 kPa | 712.5 | 722.5 | 734.7 | 769.5 | 779.7 | 815.8 | 869.8 | 902.8 | 944.2 | 953.8
298.15 K, 10000 kPa | 716.3 | 726.3 | 738.5 | 773.4 | 783.7 | 819.8 | 873.8 | 906.9 | 948.2 | 957.7
298.15 K, 20000 kPa | 723.9 | 734 | 746.3 | 781.4 | 791.8 | 828.1 | 882 | 915.2 | 956.4 | 965.9
298.15 K, 30000 kPa | 730.8 | 741 | 753.4 | 788.8 | 799.1 | 835.6 | 889.8 | 922.8 | 964 | 973.6
298.15 K, 40000 kPa | 737.2 | 747.4 | 759.9 | 795.5 | 805.9 | 842.4 | 896.9 | 929.9 | 971.1 | 980.7
308.15 K, 100 kPa | 699.6 | 709.3 | 721.2 | 755.4 | 765.4 | 801 | 854.3 | 887.1 | 928 | 937.6
308.15 K, 5000 kPa | 704.2 | 714 | 725.9 | 760.4 | 770.4 | 805.9 | 859.3 | 892 | 932.9 | 942.6
308.15 K, 10000 kPa | 708.7 | 718.5 | 730.5 | 765.1 | 775.1 | 810.8 | 864.1 | 896.8 | 937.6 | 947.3
308.15 K, 20000 kPa | 716.6 | 726.5 | 738.7 | 773.3 | 783.6 | 819.4 | 873 | 905.6 | 946.3 | 956
308.15 K, 30000 kPa | 723.8 | 733.9 | 746.2 | 781.1 | 791.2 | 827.2 | 880.9 | 913.7 | 954.3 | 964.1
308.15 K, 40000 kPa | 730.5 | 740.7 | 753 | 788 | 798.3 | 834.6 | 888.3 | 921.2 | 961.9 | 971.5

CCOC(=O)OCC [diethyl carbonate] + CCCCCCCCCC
mass density [kg/m3]
Details | x1 = 0.0538 | x1 = 0.1716 | x1 = 0.2151 | x1 = 0.3257 | x1 = 0.5032 | x1 = 0.5482 | x1 = 0.7985 | x1 = 0.8989 | x1 = 0.9487
288.15 K, 100 kPa | 740.8 | 759.4 | 766.3 | 786.5 | 821.3 | 832.2 | 903.2 | 937.5 | 956.9
288.15 K, 5000 kPa | 744.5 | 763.3 | 770.2 | 790.5 | 826.7 | 836.6 | 907.4 | 943.6 | 963
288.15 K, 10000 kPa | 748 | 766.8 | 773.7 | 794.3 | 830.7 | 840.6 | 911.5 | 947.7 | 967.1
288.15 K, 20000 kPa | 754.6 | 773.6 | 780.5 | 801.2 | 837.8 | 847.8 | 919 | 955.4 | 974.8
288.15 K, 30000 kPa | 760.6 | 780.9 | 786.9 | 807.5 | 844.6 | 854.5 | 926 | 962.6 | 981.9
288.15 K, 40000 kPa | 766.4 | 785.6 | 792.8 | 813.8 | 850.9 | 860.9 | 932.8 | 969.5 | 988.9
298.15 K, 100 kPa | 733.1 | 751.2 | 758 | 777.9 | 813.5 | 823.1 | 892.8 | 928.3 | 947.6
298.15 K, 5000 kPa | 737.6 | 755.8 | 762.6 | 782.6 | 818.2 | 827.8 | 897.7 | 933.5 | 952.7
298.15 K, 10000 kPa | 740.7 | 759.1 | 766 | 786.1 | 821.9 | 831.7 | 901.5 | 937.5 | 956.6
298.15 K, 20000 kPa | 747.7 | 766.2 | 773.1 | 793.5 | 829.7 | 839.4 | 909.6 | 945.7 | 964.8
298.15 K, 30000 kPa | 753.9 | 772.6 | 779.8 | 800.2 | 836.7 | 846.5 | 917.1 | 953.2 | 972.2
298.15 K, 40000 kPa | 759.8 | 778.7 | 785.8 | 806.5 | 843.3 | 853.1 | 924.1 | 960.2 | 979.3
308.15 K, 100 kPa | 725.5 | 743.2 | 749.9 | 769.4 | 804.4 | 813.9 | 882.5 | 917.7 | 936.6
308.15 K, 5000 kPa | 729.6 | 747.5 | 754.3 | 773.9 | 809 | 818.4 | 887.3 | 922.6 | 941.5
308.15 K, 10000 kPa | 733.6 | 751.6 | 758.4 | 778.1 | 813.5 | 823 | 892 | 927.1 | 946.2
308.15 K, 20000 kPa | 740.7 | 758.9 | 765.9 | 785.9 | 821.4 | 831 | 900.5 | 935.7 | 954.6
308.15 K, 30000 kPa | 747.5 | 765.8 | 772.7 | 792.9 | 828.9 | 838.4 | 908.2 | 943.8 | 962.7
308.15 K, 40000 kPa | 753.6 | 772.1 | 779.1 | 799.4 | 835.8 | 845.3 | 915.6 | 951.2 | 970.2
